Experimental data reported in patent US20230391760A1, “HETEROCYCLIC GLP-1 AGONISTS” (Gasherbrum Bio, Inc., priority 2020, published 2023).
pEC50: −log10 of the molar value.

Molecular target: GLP-1 Receptor (Homo sapiens, UniProt P43220)
Experiment: GLP-1R agonist cAMP stimulation assay (HEK293/GLP1R/CRE-LUC cells, cAMP dynamic 2 Kit)
Assay type: cell-based
Conditions: HEK293/CRE-Luc cell line stably expressing the GLP-1 Receptor, 30 min at 37° C.
In short: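 cAMP measured by HTRF competition (d2-labelled cAMP with cryptate antibody, 1 h, room temperature, protected from light). Before that, GLP1R/CRE-Luc HEK293 cells (1000/well) were exposed for 30 min at 37 °C to half-log compound dilutions in DPBS containing IBMX 0.5 mM and BSA 0.1%.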

GLP-1 Receptor, sequence (P43220 24-463, species assumed): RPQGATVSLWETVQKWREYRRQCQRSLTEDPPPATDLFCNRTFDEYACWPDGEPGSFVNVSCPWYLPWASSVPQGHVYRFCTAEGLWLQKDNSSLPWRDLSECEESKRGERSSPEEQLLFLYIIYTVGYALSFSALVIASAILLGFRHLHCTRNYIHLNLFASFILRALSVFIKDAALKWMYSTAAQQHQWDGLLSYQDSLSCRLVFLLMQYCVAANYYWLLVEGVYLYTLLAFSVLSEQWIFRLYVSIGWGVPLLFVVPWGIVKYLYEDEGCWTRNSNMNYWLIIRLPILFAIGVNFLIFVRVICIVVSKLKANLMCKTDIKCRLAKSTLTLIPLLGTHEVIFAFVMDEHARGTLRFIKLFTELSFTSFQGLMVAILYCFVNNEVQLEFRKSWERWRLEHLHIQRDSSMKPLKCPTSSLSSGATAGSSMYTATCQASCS

| SMILES | pEC50 |
| --- | --- |
| O=C(Nc1ccc2c(c1)nc(CN1CCC(c3cccc(OCc4ccc(Cl)cc4F)n3)CC1)n2C[C@@H]1CCO1)c1cnc2ccccn12 [Compound 181a, N-{2-[(4-{6-[(4-chloro-2-fluorophenyl)methoxy]pyridin-2-yl}piperidin-1-yl)methyl]-1-{[(2S)-oxetan-2-yl]methyl}-1H-1,3-benzodiazol-5-yl}imidazo[1,2-a]pyridine-3-carboxamide] | 9.51 |
| CC(C(=O)Nc1ccc2c(c1)nc(CN1CCC(c3cccc(OCc4ccc(Cl)cc4F)n3)CC1)n2C[C@@H]1CCO1)c1cnn(C)c1 (stereo partly drawn) [Compound 182a, N-{2-[(4-{6-[(4-chloro-2-fluorophenyl)methoxy]pyridin-2-yl}piperidin-1-yl)methyl]-1-{[(2S)-oxetan-2-yl]methyl}-1H-1,3-benzodiazol-5-yl}-2-(1-methyl-1H-pyrazol-4-yl)propanamide] | 8.60 |
| CC1(C(=O)Nc2ccc3c(c2)nc(CN2CCC(c4cccc(OCc5ccc(Cl)cc5F)n4)CC2)n3C[C@@H]2CCO2)CCCCO1 (stereo partly drawn) [Compound 183a, N-{2-[(4-{6-[(4-chloro-2-fluorophenyl)methoxy]pyridin-2-yl}piperidin-1-yl)methyl]-1-{[(2S)-oxetan-2-yl]methyl}-1H-1,3-benzodiazol-5-yl}-2-methyloxane-2-carboxamide] | 8.40 |
| Cc1cnc(C(=O)Nc2ccc3c(c2)nc(CN2CCC(c4cccc(OCc5ccc(Cl)cc5F)n4)CC2)n3C[C@@H]2CCO2)c(C)c1 [Compound 184a, N-{2-[(4-{6-[(4-chloro-2-fluorophenyl)methoxy]pyridin-2-yl}piperidin-1-yl)methyl]-1-{[(2S)-oxetan-2-yl]methyl}-1H-1,3-benzodiazol-5-yl}-3,5-dimethylpyridine-2-carboxamide] | 8.70 |
| Cc1ccnn1C(C)C(=O)Nc1ccc2c(c1)nc(CN1CCC(c3cccc(OCc4ccc(Cl)cc4F)n3)CC1)n2C[C@@H]1CCO1 (stereo partly drawn) [Compound 185a, N-{2-[(4-{6-[(4-chloro-2-fluorophenyl)methoxy]pyridin-2-yl}piperidin-1-yl)methyl]-1-{[(2S)-oxetan-2-yl]methyl}-1H-1,3-benzodiazol-5-yl}-2-(5-methyl-1H-pyrazol-1-yl)propanamide] | 8.28 |
| O=C(Nc1ccc2c(c1)nc(CN1CCC(c3cccc(OCc4ccc(Cl)cc4F)n3)CC1)n2C[C@@H]1CCO1)C1CCC(F)(F)C1 (stereo partly drawn) [Compound 186a, N-{2-[(4-{6-[(4-chloro-2-fluorophenyl)methoxy]pyridin-2-yl}piperidin-1-yl)methyl]-1-{[(2S)-oxetan-2-yl]methyl}-1H-1,3-benzodiazol-5-yl}-3,3-difluorocyclopentane-1-carboxamide] | 8.52 |

Now from value to compound:

| pEC50 | SMILES |
| --- | --- |
| 9.06 | Cc1cc(C(=O)Nc2ccc3c(c2)nc(CN2CCC(c4cccc(OCc5ccc(Cl)cc5F)n4)CC2)n3C[C@@H]2CCO2)nn1C [Compound 187a, N-{2-[(4-{6-[(4-chloro-2-fluorophenyl)methoxy]pyridin-2-yl}piperidin-1-yl)methyl]-1-{[(2S)-oxetan-2-yl]methyl}-1H-1,3-benzodiazol-5-yl}-1,5-dimethyl-1H-pyrazole-3-carboxamide] |
| 10.37 | Cc1ncccc1C(=O)Nc1ccc2c(c1)nc(CN1CCC(c3cccc(OCc4ccc(Cl)cc4F)n3)CC1)n2C[C@@H]1CCO1 [Compound 188a, N-{2-[(4-{6-[(4-chloro-2-fluorophenyl)methoxy]pyridin-2-yl}piperidin-1-yl)methyl]-1-{[(2S)-oxetan-2-yl]methyl}-1H-1,3-benzodiazol-5-yl}-2-methylpyridine-3-carboxamide] |
| 9.09 | O=C(Nc1ccc2c(c1)nc(CN1CCC(c3cccc(OCc4ccc(Cl)cc4F)n3)CC1)n2C[C@@H]1CCO1)C1COCCC1(F)F (stereo partly drawn) [Compound 189a, N-{2-[(4-{6-[(4-chloro-2-fluorophenyl)methoxy]pyridin-2-yl}piperidin-1-yl)methyl]-1-{[(2S)-oxetan-2-yl]methyl}-1H-1,3-benzodiazol-5-yl}-4,4-difluorooxane-3-carboxamide] |
